≈ marks a conversion by molar mass, not a printed value.
Columns and labels:
PI3Kα = PI3Kα (Homo sapiens, UniProt P42336); assay: ADP-Glo luminescent assay, enzymatic activity of PI3K alpha; type: biochemical; conditions: ATP 25 μM; read-out: PI3K alpha (nM) inhibitory activity (IC50)
Experimental: (§1) Enzymatic activity of PI3K isoforms: Enzymatic activity of the class I PI3K isoforms in the presence of the compounds of Table 1 was measured using ADP-Glo luminescent assay against PI3Kα, PI3Kβ, PI3Kδ and PI3Kγ with ATP concentration at 25 μM. IPI-549 was used as the reference compound. The compounds would be tested from 1 or 10 μM, 3-fold dilution for 10 doses, in duplicate.
(§2) Compound preparation: Dilute a compound to 100× of the final desired highest inhibitor concentration in reaction by 100% DMSO. Transfer 100 μl of this compound dilution to a well in a 96-well plate and serially dilute it with DMSO for a total of 10 concentrations.
(§3) Kinase reaction: Prepare a solution of PI3K in 1× kinase buffer at 2-fold the final concentration of each reagent in the assay. Control wells contain 1× kinase buffer without enzyme. Prepare substrate solution of PIP2 substrate and ATP in 1× kinase reaction buffer at 2-fold of the final concentration. Add concentration substrate solution to each well to the final concentration. Cover the assay plate, shake to mix, and incubate at room temperature for 1 hour. Add 5 μl of ADP-Glo reagent to each well to stop the reaction. Mix briefly with a quick spin, shake slowly on the shaker for 120 min. Add 10 ul Kinase Detection Reagent to each well, shake 1 min, equilibrate for 30 min before reading on a luminescence plate reader.
(§4) Data Analysis: Convert RLU values to percent inhibition values as Percent inhibition=(max−sample RLU)/(max−min)*100. “min”—no enzyme control; “max”—DMSO control. Fit the data in XLFit excel add-in version 5.4.0.8 to obtain IC50 values. Y=Bottom+(Top−Bottom)/(1+(IC50/X)^HillSlope).

PI3Kδ = PI3Kδ (Homo sapiens, UniProt O00329); assay: ADP-Glo luminescent assay, enzymatic activity of PI3K delta; type: biochemical; conditions: ATP 25 μM; read-out: PI3K delta (nM) inhibitory activity (IC50)
PI3Kδ, sequence (O00329 whole entry, species assumed): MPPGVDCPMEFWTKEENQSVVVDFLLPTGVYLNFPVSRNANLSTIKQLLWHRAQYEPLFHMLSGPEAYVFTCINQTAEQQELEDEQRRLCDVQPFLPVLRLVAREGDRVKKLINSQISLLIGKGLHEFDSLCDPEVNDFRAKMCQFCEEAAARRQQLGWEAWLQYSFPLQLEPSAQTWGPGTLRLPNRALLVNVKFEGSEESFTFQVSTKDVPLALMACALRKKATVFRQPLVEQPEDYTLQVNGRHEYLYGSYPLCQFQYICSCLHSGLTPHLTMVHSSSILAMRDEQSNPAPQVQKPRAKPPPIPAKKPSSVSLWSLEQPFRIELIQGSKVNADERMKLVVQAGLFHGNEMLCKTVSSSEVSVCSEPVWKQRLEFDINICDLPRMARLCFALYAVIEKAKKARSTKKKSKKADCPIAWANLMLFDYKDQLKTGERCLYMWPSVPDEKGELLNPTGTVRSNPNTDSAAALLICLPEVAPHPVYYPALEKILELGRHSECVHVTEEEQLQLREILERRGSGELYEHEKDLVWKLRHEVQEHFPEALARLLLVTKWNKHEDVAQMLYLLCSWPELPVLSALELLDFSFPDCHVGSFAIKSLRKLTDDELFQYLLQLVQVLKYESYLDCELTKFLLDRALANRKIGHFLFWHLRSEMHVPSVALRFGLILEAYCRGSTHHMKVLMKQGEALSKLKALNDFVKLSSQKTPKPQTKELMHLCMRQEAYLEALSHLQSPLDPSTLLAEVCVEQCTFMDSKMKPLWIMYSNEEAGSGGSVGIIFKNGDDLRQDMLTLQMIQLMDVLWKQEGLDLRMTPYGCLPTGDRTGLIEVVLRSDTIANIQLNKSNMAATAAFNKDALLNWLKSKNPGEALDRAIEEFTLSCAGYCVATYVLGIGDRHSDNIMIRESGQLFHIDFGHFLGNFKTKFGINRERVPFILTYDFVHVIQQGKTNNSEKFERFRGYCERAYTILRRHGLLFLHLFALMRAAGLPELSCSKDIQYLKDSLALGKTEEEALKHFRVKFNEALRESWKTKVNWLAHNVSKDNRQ
PI3Kδ, sequence (P27986 whole entry partner, species assumed): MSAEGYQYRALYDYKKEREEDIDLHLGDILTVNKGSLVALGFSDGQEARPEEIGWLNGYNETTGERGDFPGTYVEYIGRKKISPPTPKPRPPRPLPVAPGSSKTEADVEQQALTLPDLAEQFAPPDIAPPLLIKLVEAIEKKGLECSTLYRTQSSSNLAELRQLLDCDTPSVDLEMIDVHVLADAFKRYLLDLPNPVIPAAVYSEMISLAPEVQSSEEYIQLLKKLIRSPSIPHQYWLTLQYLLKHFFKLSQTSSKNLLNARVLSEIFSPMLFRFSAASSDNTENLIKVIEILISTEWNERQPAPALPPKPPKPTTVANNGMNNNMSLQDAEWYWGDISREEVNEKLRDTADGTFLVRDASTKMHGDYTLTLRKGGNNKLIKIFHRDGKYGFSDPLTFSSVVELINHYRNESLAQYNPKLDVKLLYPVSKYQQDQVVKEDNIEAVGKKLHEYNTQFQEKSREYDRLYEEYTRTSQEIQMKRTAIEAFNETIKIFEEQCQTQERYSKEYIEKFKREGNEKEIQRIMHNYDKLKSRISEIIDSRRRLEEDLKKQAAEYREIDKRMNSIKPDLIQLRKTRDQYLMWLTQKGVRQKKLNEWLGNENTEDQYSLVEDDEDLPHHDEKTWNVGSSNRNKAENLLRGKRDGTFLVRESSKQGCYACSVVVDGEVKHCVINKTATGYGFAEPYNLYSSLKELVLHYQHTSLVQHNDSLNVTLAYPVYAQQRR
Experimental: as §1, with “IPI-549 was used as the reference compound.” left out
as §2, §3, §4

[1] = Kinetic solubility test in PBS pH7.4; type: physicochemical; conditions: for solubility at 2 h: aqueous buffer, kinetic from dmso stock, PBS pH 7.4, 25° C.
Experimental: 15 μL of stock solution (10 mM) was placed in order into their proper 96-well rack. 485 μL of PBS pH7.4 was added into each vial of the cap-less Solubility Sample plate. The assay was performed in singlet. Add one stir stick to each vial and seal using a molded PTFE/Silicone plug. […] After completion of the 2 hours, the samples from the Solubility Sample plate were transferred into the filter plate. all the samples were filtered using the Vacuum Manifold. Aliquot of 5 μL was taken from the filtrate followed by addition of 495 μL of a mixture of H2O and acetonitrile containing internal standard (1:1). A certain proportion of ultrapure water was used to dilute the diluent according to the peak shape. The dilution factor was changed according to the solubility values and the LC-MS signal response.
Preparation of 3 μM standards (STD): From the 10 mM DMSO STD plate, 6 μL was transferred into the remaining empty plate, and then 194 μL of DMSO was added to that plate to have a STD concentration of 300 μM. From the 300 μM DMSO STD plate, 5 μL was transferred into the remaining empty plate, and then 495 μL of a mixture of H2O and acetonitrile containing internal standard (1:1) was added to that plate to have a final STD concentration of 3 μM. A certain proportion of ultrapure water was used to dilute the diluent according to the peak shape. The concentrations of the standard samples were changed according to the LC-MS signal response.
Procedure for sample analysis: The plate was placed into the well plate autosampler. The samples were evaluated by LC-MS/MS analysis.
Data analysis: All calculations were carried out using Microsoft Excel.
The filtrate was analyzed and quantified against a standard of known concentration using LC coupled with mass spectral peak identification and quantitation. Solubility values of the test compound and control compound were calculated as follows:
[formula] • Any value of the compounds that was not within the specified limits was rejected and the experiment was repeated.

PI3Kβ = PI3Kβ (Homo sapiens, UniProt P42338); assay: ADP-Glo luminescent assay, enzymatic activity of PI3K beta; type: biochemical; conditions: ATP 25 μM; read-out: PI3K beta (nM) inhibitory activity (IC50)
Experimental: as §1, §2, §3, §4

PI3K gamma = biological target: T1, PI3K gamma (Mus musculus, UniProt Q9JHG7); assay: Raw264.7 cell assay: phosphorylation of AKT in C5a stimulated RAW264.7 cells (AlphaLISA); type: cell-based; conditions: pAKT, read-out: PI3K gamma Raw264.7 cell (nM) cellular activity (IC50)
T1 construct: endogenous in cells; host or cells: RAW264.7
T1 sequence (Q9JHG7 whole entry): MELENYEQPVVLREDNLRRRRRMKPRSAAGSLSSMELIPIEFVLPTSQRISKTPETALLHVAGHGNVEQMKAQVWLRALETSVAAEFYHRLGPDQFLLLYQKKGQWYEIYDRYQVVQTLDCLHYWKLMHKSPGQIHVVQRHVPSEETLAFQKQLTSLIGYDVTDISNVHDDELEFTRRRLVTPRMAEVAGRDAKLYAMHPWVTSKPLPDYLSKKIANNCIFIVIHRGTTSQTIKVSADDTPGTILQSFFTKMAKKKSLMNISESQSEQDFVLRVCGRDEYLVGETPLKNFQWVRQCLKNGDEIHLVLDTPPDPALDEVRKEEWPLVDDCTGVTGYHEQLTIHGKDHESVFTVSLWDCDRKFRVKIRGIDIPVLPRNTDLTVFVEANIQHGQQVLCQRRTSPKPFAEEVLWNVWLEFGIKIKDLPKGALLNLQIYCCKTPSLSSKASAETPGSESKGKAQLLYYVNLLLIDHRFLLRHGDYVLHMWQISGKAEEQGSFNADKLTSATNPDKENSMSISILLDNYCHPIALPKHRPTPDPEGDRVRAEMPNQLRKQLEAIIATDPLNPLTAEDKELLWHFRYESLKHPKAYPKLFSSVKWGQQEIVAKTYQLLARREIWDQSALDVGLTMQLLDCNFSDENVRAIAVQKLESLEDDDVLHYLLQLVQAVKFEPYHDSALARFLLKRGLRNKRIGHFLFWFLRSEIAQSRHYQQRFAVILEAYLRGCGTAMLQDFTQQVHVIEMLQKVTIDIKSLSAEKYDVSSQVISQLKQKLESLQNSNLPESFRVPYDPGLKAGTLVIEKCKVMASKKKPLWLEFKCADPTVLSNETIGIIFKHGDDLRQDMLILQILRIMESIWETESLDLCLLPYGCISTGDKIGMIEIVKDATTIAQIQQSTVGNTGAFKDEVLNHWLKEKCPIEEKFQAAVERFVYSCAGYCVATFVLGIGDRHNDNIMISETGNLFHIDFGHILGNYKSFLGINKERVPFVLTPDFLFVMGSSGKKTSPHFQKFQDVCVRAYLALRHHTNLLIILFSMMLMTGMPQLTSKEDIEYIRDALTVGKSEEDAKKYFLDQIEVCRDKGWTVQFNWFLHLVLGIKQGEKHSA
T1 sequence (Q5SW28 whole entry partner): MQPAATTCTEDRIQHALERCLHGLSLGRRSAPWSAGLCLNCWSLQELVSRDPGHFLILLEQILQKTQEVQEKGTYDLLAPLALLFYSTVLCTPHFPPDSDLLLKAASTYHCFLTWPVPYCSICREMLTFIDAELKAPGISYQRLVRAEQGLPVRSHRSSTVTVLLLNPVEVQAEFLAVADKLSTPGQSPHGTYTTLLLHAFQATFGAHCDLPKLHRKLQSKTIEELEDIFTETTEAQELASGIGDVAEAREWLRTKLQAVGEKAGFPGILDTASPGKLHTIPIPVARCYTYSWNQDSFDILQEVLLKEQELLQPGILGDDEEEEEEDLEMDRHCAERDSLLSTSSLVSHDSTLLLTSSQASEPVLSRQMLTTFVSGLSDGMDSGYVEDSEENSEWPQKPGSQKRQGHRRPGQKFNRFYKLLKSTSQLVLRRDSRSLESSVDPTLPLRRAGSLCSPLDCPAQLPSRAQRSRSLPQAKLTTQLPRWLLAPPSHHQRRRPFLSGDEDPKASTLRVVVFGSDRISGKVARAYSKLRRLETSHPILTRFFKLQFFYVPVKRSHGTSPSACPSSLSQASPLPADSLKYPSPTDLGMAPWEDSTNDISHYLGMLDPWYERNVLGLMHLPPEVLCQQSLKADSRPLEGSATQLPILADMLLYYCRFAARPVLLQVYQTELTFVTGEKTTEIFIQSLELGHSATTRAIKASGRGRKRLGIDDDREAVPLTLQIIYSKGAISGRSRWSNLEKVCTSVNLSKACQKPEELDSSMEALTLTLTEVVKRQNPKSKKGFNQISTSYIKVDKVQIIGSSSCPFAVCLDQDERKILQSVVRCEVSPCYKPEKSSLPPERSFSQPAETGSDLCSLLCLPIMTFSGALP
How it was run: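 Passage-15 RAW264.7 cells were plated and rested 2 h at 37 °C, then given compound for 30 min at 37 °C before C5a stimulation. Lysates went to phospho-AKT AlphaLISA with a 2 h dark incubation at 25 °C. IC50 came from a four-parameter logistic fit of inhibition against log concentration.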

PI3Kα, sequence (P42336 whole entry, species assumed, canonical isoform): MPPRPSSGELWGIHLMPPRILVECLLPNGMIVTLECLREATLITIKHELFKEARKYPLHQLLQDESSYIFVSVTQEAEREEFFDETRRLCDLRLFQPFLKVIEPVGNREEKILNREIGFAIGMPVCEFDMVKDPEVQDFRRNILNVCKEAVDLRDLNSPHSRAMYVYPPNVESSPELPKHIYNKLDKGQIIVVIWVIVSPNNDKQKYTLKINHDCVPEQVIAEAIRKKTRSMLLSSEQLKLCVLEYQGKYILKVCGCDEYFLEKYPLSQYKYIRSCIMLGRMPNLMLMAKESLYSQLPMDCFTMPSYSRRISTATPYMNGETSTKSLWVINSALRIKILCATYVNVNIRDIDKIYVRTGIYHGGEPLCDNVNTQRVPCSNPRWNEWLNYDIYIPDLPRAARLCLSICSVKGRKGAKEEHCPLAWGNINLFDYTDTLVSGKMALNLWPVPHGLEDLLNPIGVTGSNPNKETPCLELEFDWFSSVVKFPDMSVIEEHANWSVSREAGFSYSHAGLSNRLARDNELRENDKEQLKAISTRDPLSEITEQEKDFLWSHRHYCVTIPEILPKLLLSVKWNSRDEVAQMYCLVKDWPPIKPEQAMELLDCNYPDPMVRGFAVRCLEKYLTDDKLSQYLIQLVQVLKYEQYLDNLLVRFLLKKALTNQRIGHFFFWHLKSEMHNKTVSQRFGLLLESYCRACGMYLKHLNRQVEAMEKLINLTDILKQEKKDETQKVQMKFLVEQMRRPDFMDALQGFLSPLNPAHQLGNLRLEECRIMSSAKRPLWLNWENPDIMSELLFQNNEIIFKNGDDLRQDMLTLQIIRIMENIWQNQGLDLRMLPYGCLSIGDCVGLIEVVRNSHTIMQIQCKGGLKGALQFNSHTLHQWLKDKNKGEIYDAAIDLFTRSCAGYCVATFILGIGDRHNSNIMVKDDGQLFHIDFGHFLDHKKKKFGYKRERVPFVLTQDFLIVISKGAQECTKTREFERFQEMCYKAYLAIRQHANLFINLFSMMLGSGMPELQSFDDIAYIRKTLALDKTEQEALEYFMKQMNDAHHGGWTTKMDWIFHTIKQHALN
PI3Kα, sequence (P27986 whole entry partner, species assumed, canonical isoform): as the sequence (P27986 whole entry partner, species assumed) above

IC50 (PI3Kα) [nM]	IC50 (PI3Kδ) [nM]	solubility at 2 h [1] [µM]	fold improvement over AZ-17 in kinetic solubility test ([1]; physiologic pH) [fold]	IC50 (PI3Kβ) [nM]	IC50 (PI3K gamma) [nM]	Compound
3890	1170	240 (≈ 108 µg/mL)	> 200	> 10000	4.3	CC(=O)Nc1nc(C)c(-c2cc3c(c(NS(C)(=O)=O)n2)C(=O)N([C@@H](C)C2CC2)C3)s1 [Compound 20, (S)-N-(5-(2-(1-cyclopropylethyl)-4-(methylsulfonamido)-3-oxo-2,3-dihydro-1H-pyrrolo[3,4-c]pyridin-6-yl)-4-methylthiazol-2-yl)acetamide]
3330	> 1000	9.6 (≈ 4.24 µg/mL)	–	> 10000	1.6	CC(=O)Nc1nc(C)c(-c2cc3c(c(N4CCOCC4)n2)C(=O)N([C@@H](C)C2CC2)C3)s1 [Compound 34, (S)-N-(5-(2-(1-cyclopropylethyl)-4-morpholino-3-oxo-2,3-dihydro-M-pyrrolo[3,4-c]pyridin-6-yl)-4-methylthiazol-2-yl)acetamide]

From patent US11542262B2, “Phosphatidylinositol 3-kinase inhibitors” (NANJING ZHENGXIANG PHARMACEUTICALS CO., LTD., priority 2019, dated 2023)
